Results: the NIST ThermoML archive (doi:10.1016/j.jct.2010.01.009)
Where “and” joins values, the source holds several entries; their conditions need not be identical. Identical values can stand only once. Numbers after ± are expanded uncertainties.

Conditions: Crystal, Calculated from knudsen effusion weight loss

SMILES	vapor or sublimation pressure (271.14 K)	vapor or sublimation pressure (273.15 K)	vapor or sublimation pressure (275.17 K)	vapor or sublimation pressure (277.06 K)	vapor or sublimation pressure (279.15 K)	vapor or sublimation pressure (281.11 K)	vapor or sublimation pressure (283.19 K)	vapor or sublimation pressure (285.24 K)	vapor or sublimation pressure (287.13 K)	vapor or sublimation pressure (283.11 K)	vapor or sublimation pressure (285.13 K)	vapor or sublimation pressure (287.12 K)	vapor or sublimation pressure (289.13 K)	vapor or sublimation pressure (291.14 K)	vapor or sublimation pressure (293.13 K)	vapor or sublimation pressure (295.18 K)	vapor or sublimation pressure (297.15 K)	vapor or sublimation pressure (299.16 K)
c1ccc(-n2cccc2)cc1 [1-phenylpyrrole]	0.000151 ± 8e-06 kPa and 0.000147 ± 7e-06 kPa and 0.000143 ± 7e-06 kPa	0.000191 ± 1e-05 kPa and 0.00019 ± 1e-05 kPa and 0.000185 ± 9e-06 kPa	0.000255 ± 1.3e-05 kPa and 0.000247 ± 1.2e-05 kPa and 0.000241 ± 1.2e-05 kPa	0.000336 ± 1.7e-05 kPa and 0.000311 ± 1.6e-05 kPa and 0.00033 ± 1.7e-05 kPa	0.000426 ± 2.1e-05 kPa and 0.000414 ± 2.1e-05 kPa and 0.000397 ± 2e-05 kPa	0.000537 ± 2.7e-05 kPa and 0.000525 ± 2.6e-05 kPa	0.000682 ± 3.4e-05 kPa and 0.000678 ± 3.4e-05 kPa and 0.000651 ± 3.3e-05 kPa	0.000905 ± 4.5e-05 kPa and 0.000887 ± 4.4e-05 kPa	0.001123 ± 0.00012 kPa and 0.001111 ± 0.00011 kPa and 0.00106 ± 0.00011 kPa									
Cc1ccc(-n2cccc2)cc1 [1-(4-methylphenyl)-1H-pyrrole]										0.00014 ± 7e-06 kPa and 0.000137 ± 7e-06 kPa	0.000168 ± 8e-06 kPa and 0.000169 ± 8e-06 kPa and 0.000174 ± 9e-06 kPa	0.00023 ± 1.2e-05 kPa and 0.000224 ± 1.1e-05 kPa and 0.00022 ± 1.1e-05 kPa	0.000278 ± 1.4e-05 kPa and 0.000282 ± 1.4e-05 kPa and 0.000286 ± 1.4e-05 kPa	0.000362 ± 1.8e-05 kPa and 0.000355 ± 1.8e-05 kPa	0.000468 ± 2.3e-05 kPa and 0.000459 ± 2.3e-05 kPa and 0.000451 ± 2.3e-05 kPa	0.000579 ± 2.9e-05 kPa and 0.000571 ± 2.9e-05 kPa and 0.000558 ± 2.8e-05 kPa	0.000732 ± 3.7e-05 kPa and 0.000734 ± 3.7e-05 kPa	0.000948 ± 4.7e-05 kPa and 0.000927 ± 4.6e-05 kPa and 0.000925 ± 4.6e-05 kPa
